Measurements taken from patent US8536354B2, “Steroidal ligands and their use in gene switch modulation” (Intrexon Corporation, priority 2008, dated 2013).
In brackets after ≈: the same amount, converted by molar mass. Several values for one entry are separate records, joined by “and”; a condition that tells them apart may be missing. Equal values may be shown once. Read-outs that look alike come from different tables or passages of the source.

Legend:
[1] = system: D. melanogaster BII cell line (expresses the ecdysteroid receptor complex EcR-USP); test: Drosophila melanogaster BII cell line bioassay (turbidometric; agonist and antagonist versions); settings: Drosophila melanogaster, read-out: EC50 (M), BII bioassay results
physchem = settings: 25 °C, water, thermodynamic from solid
Experimental: (§1) Each shake flask was agitated for 60 minutes at room temperature, then allowed to stand for 1 hour at room temperature. […] Absorbance was compared to that of a reference standard at the same absorbance maximum for a 1-2% solution of the same steroid in CH3OH, allowing for up to 10 nM maxima shift due to solvent effect.

[2] = Plasma protein binding assay (dialysis); type: in vitro ADME; settings: both sexes; human plasma vs PBS pH 7.4, ca. 24 hours at 37° C.
[3] = biological target: T1, wild-type Choristoneura fumiferana EcR (CfEcR-DEF) (Choristoneura fumiferana, UniProt O77255); test: Two-hybrid gene switch assay, wild-type CfEcR-DEF (GAL4-EcR / VP16-RXR-USP chimera, luciferase) in NIH3T3 cells
T1 sequence (O77255 219-541): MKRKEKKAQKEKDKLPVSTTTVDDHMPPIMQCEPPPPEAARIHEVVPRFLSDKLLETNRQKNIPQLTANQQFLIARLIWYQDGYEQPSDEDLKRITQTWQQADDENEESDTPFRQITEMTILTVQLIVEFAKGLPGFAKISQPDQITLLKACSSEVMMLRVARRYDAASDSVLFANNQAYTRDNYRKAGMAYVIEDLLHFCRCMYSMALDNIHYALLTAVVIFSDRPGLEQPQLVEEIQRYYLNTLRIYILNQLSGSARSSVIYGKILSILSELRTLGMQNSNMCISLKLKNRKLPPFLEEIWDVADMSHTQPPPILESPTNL
T1 sequence (P28702 299-449 partner): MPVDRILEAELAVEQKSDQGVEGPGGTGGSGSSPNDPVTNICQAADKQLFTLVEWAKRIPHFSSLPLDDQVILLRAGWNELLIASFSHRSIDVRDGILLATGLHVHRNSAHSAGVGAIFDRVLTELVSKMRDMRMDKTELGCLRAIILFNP

[4] = in human; cited from earlier work
[5] = Log D measurement (shake flask, pH 7.4 buffer / octanol); type: physicochemical; settings: octanol/pH 7.4 buffer (shake flask), pH 7.4 buffer / water-saturated octanol, read-out: Experimental logD
Experimental: as §1

[6] = Caco II permeability assay; settings: human, Caco-2, pH 7.4
[7] = Water solubility measurement (saturated solutions, 25° C., UV absorbance); settings: 25 °C, thermodynamic from solid
Experimental: as §1

[8] = biological target: T2, wild-type Aedes aegypti EcR (AaEcR-DEF) (Aedes aegypti, UniProt P49880); test: Two-hybrid gene switch assay, AaEcR-DEF in NIH3T3 cells
T2 sequence (P49880 405-776 limits assumed): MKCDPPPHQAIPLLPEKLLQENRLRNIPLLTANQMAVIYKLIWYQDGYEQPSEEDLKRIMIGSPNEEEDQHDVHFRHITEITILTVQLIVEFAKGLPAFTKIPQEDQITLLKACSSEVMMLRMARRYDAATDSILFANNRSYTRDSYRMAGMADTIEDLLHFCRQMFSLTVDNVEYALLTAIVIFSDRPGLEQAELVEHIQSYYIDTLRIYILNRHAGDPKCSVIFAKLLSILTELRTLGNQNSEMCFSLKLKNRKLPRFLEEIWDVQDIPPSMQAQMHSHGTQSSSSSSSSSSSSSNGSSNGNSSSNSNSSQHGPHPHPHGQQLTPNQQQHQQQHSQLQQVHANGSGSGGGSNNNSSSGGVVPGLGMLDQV

[9] = biological target: T3, wild-type Drosophila melanogaster EcR (DmEcR-DEF) (Drosophila melanogaster, UniProt P34021); test: Two-hybrid gene switch assay, DmEcR-DEF in NIH3T3 cells; settings: EC50, DmEcR gene switch, NIH3T3, Example One
T3 sequence (P34021 342-878 limits assumed): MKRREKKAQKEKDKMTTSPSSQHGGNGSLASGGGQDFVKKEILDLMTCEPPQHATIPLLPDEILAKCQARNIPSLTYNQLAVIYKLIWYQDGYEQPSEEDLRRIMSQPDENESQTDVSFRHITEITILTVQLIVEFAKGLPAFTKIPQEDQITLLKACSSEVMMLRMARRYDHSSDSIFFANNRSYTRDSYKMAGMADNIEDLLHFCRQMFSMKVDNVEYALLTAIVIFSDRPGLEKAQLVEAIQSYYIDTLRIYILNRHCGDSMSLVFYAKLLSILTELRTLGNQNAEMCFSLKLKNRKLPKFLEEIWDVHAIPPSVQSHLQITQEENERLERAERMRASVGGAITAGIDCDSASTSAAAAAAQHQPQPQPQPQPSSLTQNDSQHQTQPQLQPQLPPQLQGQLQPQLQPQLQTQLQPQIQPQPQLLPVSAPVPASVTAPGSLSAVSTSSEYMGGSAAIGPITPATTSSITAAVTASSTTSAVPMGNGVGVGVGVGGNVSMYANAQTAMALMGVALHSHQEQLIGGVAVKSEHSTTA

[10] = system: Nephotettix cincticeps EcR (NcEcR-DEF); test: Two-hybrid gene switch assay, NcEcR-DEF in NIH3T3 cells; settings: Example Two
[11] = system: EcRs (lepidopteran and non-lepidopteran); test: Two-hybrid gene switch assays, statements across the set of ten EcRs in NIH3T3 cells
VgEcR/RXR = VgEcR/RXR (Drosophila melanogaster, UniProt P34021, E282G/G283S/G286V)
Bombyx mori EcR (BmEcR) = biological target: T4, Bombyx mori EcR (BmEcR) (Bombyx mori, UniProt P49881); test: Two-hybrid gene switch assay, BmEcR in NIH3T3 cells
T4 sequence (P49881 352-589 limits assumed): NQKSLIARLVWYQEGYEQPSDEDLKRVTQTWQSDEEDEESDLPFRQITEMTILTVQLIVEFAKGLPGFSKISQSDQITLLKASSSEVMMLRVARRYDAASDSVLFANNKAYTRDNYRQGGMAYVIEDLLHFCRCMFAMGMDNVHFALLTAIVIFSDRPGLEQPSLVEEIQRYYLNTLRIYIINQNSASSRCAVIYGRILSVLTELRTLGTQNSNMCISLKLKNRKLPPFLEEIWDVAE

Chain of VgEcR/RXR (P34021 whole entry E282G/G283S/G286V): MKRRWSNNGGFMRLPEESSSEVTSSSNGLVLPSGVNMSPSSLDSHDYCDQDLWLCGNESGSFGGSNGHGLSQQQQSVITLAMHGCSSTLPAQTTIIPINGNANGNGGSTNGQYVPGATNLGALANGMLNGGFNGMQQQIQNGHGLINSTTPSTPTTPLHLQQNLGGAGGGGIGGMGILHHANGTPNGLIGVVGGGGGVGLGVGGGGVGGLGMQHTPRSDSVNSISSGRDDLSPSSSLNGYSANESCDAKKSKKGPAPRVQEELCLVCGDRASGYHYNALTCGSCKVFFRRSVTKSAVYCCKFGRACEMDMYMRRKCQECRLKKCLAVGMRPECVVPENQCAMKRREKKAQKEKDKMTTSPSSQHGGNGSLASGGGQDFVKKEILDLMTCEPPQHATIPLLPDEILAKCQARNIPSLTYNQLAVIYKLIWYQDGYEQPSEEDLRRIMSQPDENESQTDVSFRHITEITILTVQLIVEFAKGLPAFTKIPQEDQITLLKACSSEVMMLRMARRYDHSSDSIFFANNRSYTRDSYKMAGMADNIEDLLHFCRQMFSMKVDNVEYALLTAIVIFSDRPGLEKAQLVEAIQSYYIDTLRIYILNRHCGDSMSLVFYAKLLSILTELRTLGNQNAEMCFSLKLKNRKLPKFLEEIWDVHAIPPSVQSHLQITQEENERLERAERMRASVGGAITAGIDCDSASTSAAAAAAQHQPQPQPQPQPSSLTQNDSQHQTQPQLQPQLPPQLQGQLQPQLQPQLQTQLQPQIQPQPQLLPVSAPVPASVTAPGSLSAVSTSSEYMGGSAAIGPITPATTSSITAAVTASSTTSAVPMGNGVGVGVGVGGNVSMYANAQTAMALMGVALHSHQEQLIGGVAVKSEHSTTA
Chain of VgEcR/RXR (P19793 whole entry, further chain): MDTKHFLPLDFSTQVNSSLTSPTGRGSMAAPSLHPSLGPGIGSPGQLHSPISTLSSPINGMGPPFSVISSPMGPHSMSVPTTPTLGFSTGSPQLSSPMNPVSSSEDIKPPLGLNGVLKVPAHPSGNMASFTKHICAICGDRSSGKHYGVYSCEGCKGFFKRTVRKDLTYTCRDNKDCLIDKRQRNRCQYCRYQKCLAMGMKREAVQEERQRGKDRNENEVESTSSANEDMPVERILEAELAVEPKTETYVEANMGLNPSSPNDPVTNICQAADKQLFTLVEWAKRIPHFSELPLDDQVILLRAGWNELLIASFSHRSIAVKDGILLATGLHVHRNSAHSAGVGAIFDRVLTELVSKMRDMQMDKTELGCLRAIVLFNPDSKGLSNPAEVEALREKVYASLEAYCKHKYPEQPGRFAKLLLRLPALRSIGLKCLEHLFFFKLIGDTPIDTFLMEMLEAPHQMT

Which results are given for `CC(C)(O)CCC(O)C(C)(O)C1CCC2(O)C3=CC(=O)C4CC(O)C(O)CC4(C)C3CCC12C` (centres unmarked) [20E, 20-hydroxyecdysone]?
EC50 [1]: 7.6e-09 M; solubility (physchem): 6700 µg/mL (≈ 13.9 mM); fraction unbound [2]: 0.908; EC50 [3]: > 33000 nM; activity in wt-CfEcR assay ([3]; Example One): essentially inactive; response toward CfEcR ([3]; Example Two): virtually no response; estimated half-life [4]: 9 h; logD [5]: 0.01; Papp A→B at 120 min [6]: 0.11 ×10⁻⁶ cm/s; Papp B→A at 120 min [6]: 0.39 ×10⁻⁶ cm/s; efflux ratio at 120 min [6]: 3.5

Which solubility [7] does the source give for `CC(C)CC[C@@H](O)[C@](C)(O)[C@H]1CC[C@@]2(O)C3=CC(=O)[C@@H]4C[C@@H](O)[C@@H](O)C[C@]4(C)[C@H]3CC[C@]12C` [PoA, ponasterone A] here?
Its solubility is 180 µg/mL (≈ 0.387 mM).

What about the EC50 [1] of the same compound?
The EC50 was 2.6e-10 M.

And the EC50 ([8]; EC50, AaEcR gene switch, NIH3T3, Example One)?
The EC50 was 1.1 nM.

And the “potency as activator of AaEcR” value ([8]; Example Two)?
Its value is “single digit nM”.

And the fold induction at 1 µM ([8]; NIH3T3, read-out: FI (fold induction))?
Its fold induction at 1 µM is 166.

And the “RLUs (absolute expression of the reporter gene)” value ([8]; [AaEcR])?
The value was roughly 1046.

What about the EC50 [9] of the same compound?
The EC50 was roughly 66 nM.

What about the fraction unbound [2] of the same compound?
The fraction unbound was 0.426.

And the EC50 [3]?
The EC50 was 190 nM.

What about the “RMFI (relative maximum fold induction, relative to diacylhydrazine 30)” value ([3]; wt-CfEcR gene switch, NIH3T3, Example One) of the same compound?
Its value is ~0.18 and ~0.2.

What about the EC50 [10] of the same compound?
Its EC50 is 0.3 nM.

What about the RMFI [10] of the same compound?
The RMFI was 1.

And the logD [5]?
Its logD is 1.95.

And the “activity across the tested set of EcRs” value ([11]; FIGS. 13 and 14)?
The value was “active”.

What about the “potency” value ([11]; all EcRs tested) of the same compound?
The value was “submicromolar potency”.

What about the EC50 ([11]; read-out: potency (EC50), Nc, Aa, and Ama EcRs) of the same compound?
Its EC50 is 0.3 to 2 nM.

What about the EC50 (VgEcR/RXR; EC50, VgEcR/RXR switch in 3T3 cells) of the same compound?
Its EC50 is 641 nM.

And the EC50 (VgEcR/RXR; EC50, VgEcR/RXR system)?
The EC50 was 641 nM.

And the RMFI (VgEcR/RXR; VgEcR/RXR system)?
Its RMFI is 1.5.

What about the EC50 (Bombyx mori EcR (BmEcR)) of the same compound?
Its EC50 is 110 nM.

What about the RMFI (Bombyx mori EcR (BmEcR); BmEcR, Example Two) of the same compound?
The RMFI was 0.98.

What about the Papp A→B at 120 min [6] of the same compound?
Its Papp A→B at 120 min is 2.26 ×10⁻⁶ cm/s.

What about the Papp B→A at 120 min [6] of the same compound?
Its Papp B→A at 120 min is 13.9 ×10⁻⁶ cm/s.

And the efflux ratio at 120 min [6]?
Its efflux ratio at 120 min is 6.2.
